Results published in patent US9682991B2, “Tricyclic compounds for use as kinase inhibitors” (FUNDACIÓN CENTRO NACIONAL DE INVESTIGACIONES ONCOLOGICAS …, priority 2009, dated 2017).
Like-named read-outs stand apart in the source and are kept apart here.

Legend:
PIM-2 = PIM-2 (Homo sapiens (Human), UniProt Q9P1W9); assay: PIM-2 biochemical assay (ADP Hunter); conditions: semi-quantitative; read-out: PIM2 IC50
Excerpt: The biochemical assay to measure PIM-2 activity relies on the ADP Hunter assay kit (DiscoveRx Corp., Cat. #90-0077), that determines the amount of ADP as direct product of the kinase enzyme activity.

PIM-3 = PIM-3 (Homo sapiens (Human), UniProt Q86V86); assay: PIM-3 biochemical assay (ADP Hunter); conditions: semi-quantitative; read-out: PIM3 IC50
[1] = test system: Bad S112 phosphorylation in H1299 cells overexpressing Pim1 (H1299Pim1); assay: Bad S112 phosphorylation inhibition assay (In Cell ELISA); assay type: cell-based; conditions: Homo sapiens, NCI-H1299, semi-quantitative, read-out: EC50 BadP ELISA H1299 Pim1
Protocol: Efficacy of compounds of the invention on the inhibition of Bad phosphorylation was measured by an In Cell ELISA. EC50 values were established for the tested compounds.
Cells: H1299 cells overexpressing Pim1 (H1299Pim1)
Cells were seeded in 15000 cells per 200 μl per well into 96-well plates and incubated for 16 h at 37° C., 5% CO2. On day two, nine serial 1:2 compound dilutions were made in DMSO in a 96-well plate. The compounds were added to duplicate wells in 96-well cell plates using a FX BECKMAN robot (Beckman Coulter) and incubated at 37° C. with CO2 atmosphere. After 4 hours, relative levels of Bad S112 phosphorylation were measured in Cell ELISA using SuperSignal ELISA Femto substrate (Pierce) and read on VICTOR (Perkin Elmer). EC50 values were calculated using ActivityBase from IDBS.

PIM-1 = PIM-1 (Homo sapiens (Human), UniProt P11309); assay: PIM-1 biochemical assay (ADP Hunter)
[2] = read-out: PIM1 IC50, semi-quantitative

Chain of PIM-2 (Q9P1W9 whole entry): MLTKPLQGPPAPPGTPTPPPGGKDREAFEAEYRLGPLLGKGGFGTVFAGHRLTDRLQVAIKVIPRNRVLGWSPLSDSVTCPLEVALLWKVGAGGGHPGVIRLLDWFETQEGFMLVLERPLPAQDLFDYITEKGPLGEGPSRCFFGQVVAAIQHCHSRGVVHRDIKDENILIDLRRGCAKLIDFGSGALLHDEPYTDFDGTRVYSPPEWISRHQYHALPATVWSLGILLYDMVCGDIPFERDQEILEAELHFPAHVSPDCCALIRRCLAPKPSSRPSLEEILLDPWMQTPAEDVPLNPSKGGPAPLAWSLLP
Chain of PIM-1 (P11309 whole entry): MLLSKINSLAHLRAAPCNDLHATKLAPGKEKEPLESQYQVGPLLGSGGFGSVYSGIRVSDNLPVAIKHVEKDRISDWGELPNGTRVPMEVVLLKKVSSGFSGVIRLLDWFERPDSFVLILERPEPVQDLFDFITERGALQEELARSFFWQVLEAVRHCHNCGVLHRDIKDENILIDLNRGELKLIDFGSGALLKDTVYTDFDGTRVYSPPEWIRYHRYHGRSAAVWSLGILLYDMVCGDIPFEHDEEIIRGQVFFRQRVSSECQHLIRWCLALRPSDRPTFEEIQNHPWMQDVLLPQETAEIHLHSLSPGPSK

| Structure (SMILES) | IC50 (PIM-2) | IC50 (PIM-3) | IC50 (PIM-1; [2]) | EC50 [1] | IC50 (PIM-1) | IC50 (PIM-1; read-out: PIM1 IC50) |
| --- | --- | --- | --- | --- | --- | --- |
| CN1CCC(Nc2nn3c(-c4cccc(OC(F)(F)F)c4)nnc3c3c2N(C)CCO3)CC1 [Example 2, (1-Methyl-piperidin-4-yl)-[6-methyl-3-(3-trifluoromethoxy-phenyl)-7,8-dihydro-6H-9-oxa-1,2,3a,4,6-pentaaza-cyclopenta[a]naphthalen-5-yl]-amine] | 100 to 1000 nM | 100 to 1000 nM | < 100 nM | 250 to 1000 nM |  |  |
| CN1CCOc2c1c(N1CCC(N(C)C)CC1)nn1c(-c3cccc(OC(F)(F)F)c3)nnc21 [Example 5, Dimethyl-{1-[6-methyl-3-(3-trifluoromethoxy-phenyl)-7,8-dihydro-6H-9-oxa-1,2,3a,4,6-pentaaza-cyclopenta[a]naphthalen-5-yl]-piperidin-4-yl}-amine] | 100 to 1000 nM | 100 to 1000 nM |  | 250 to 1000 nM | < 100 nM |  |
| CN1CCOc2c1c(NCC1CC1)nn1c(-c3cccc(OC(F)(F)F)c3)nnc21 [Example 7, Cyclopropylmethyl-[6-methyl-3-(3-trifluoromethoxy-phenyl)-7,8-dihydro-6H-9-oxa-1,2,3a,4,6-pentaaza-cyclopenta[a]naphthalen-5-yl]-amine] | 100 to 1000 nM | < 100 nM |  | 1000 to 10000 nM | < 100 nM | 25.2 nM |
| CN1CCOc2c1c(NCc1ccc(F)cc1)nn1c(-c3cccc(OC(F)(F)F)c3)nnc21 [Example 9, (4-Fluoro-benzyl)-[6-methyl-3-(3-trifluoromethoxy-phenyl)-7,8-dihydro-6H-9-oxa-1,2,3a,4,6-pentaaza-cyclopenta[a]naphthalen-5-yl]-amine] | > 1000 nM |  |  | 1000 to 10000 nM | < 100 nM | 52.4 nM |
| CCN1CCOc2c1c(NCC1CCN(C)CC1)nn1c(-c3cccc(OC(F)(F)F)c3)nnc21 [Example 12, [6-Ethyl-3-(3-trifluoromethoxy-phenyl)-7,8-dihydro-6H-9-oxa-1,2,3a,4,6-pentaaza-cyclopenta[a]naphthalen-5-yl]-(1-methyl-piperidin-4-ylmethyl)-amine] |  |  | < 100 nM | < 250 nM |  |  |
| CN1CCOc2c1c(NCCN1CCOCC1)nn1c(-c3cccc(OC(F)(F)F)c3)nnc21 [Example 29, [6-Methyl-3-(3-trifluoromethoxy-phenyl)-5,6,7,8-tetrahydro-9-oxa-1,2,3a,4,6-pentaaza-cyclopenta[a]naphthalen-5-yl]-(2-morpholin-4-yl-ethyl)-amine] | 100 to 1000 nM | 100 to 1000 nM |  | < 250 nM |  |  |
| CN1CCC(CNc2nn3c(-c4cccc(OC(F)(F)F)c4)nnc3c3c2CCCC3)CC1 [Example 37, (1-Methyl-piperidin-4-ylmethyl)-[3-(3-trifluoromethoxy-phenyl)-7,8,9,10-tetrahydro-[1,2,4]triazolo[3,4-a]phthalazin-6-yl]-amine] |  |  |  | 1000 to 10000 nM |  |  |
| CN1CCOc2c1c(NC1CC3(CCNCC3)C1)nn1c(-c3cccc(OC(F)(F)F)c3)nnc21 [Example 49, (7-Aza-spiro[3.5]non-2-yl)-[6-methyl-3-(3-trifluoromethoxy-phenyl)-7,8-dihydro-6H-9-oxa-1,2,3a,4,6-pentaaza-cyclopenta[a]naphthalen-5-yl]-amine] |  |  | < 100 nM | 250 to 1000 nM |  |  |
| CN1CCOc2c1c(NCC13CCN(CC1)C3)nn1c(-c3cccc(OC(F)(F)F)c3)nnc21 [Example 54, (1-Aza-bicyclo[2.2.1]hept-4-ylmethyl)-[6-methyl-3-(3-trifluoromethoxy-phenyl)-7,8-dihydro-6H-9-oxa-1,2,3a,4,6-pentaaza-cyclopenta[a]naphthalen-5-yl]-amine] |  |  |  | 250 to 1000 nM |  |  |
| CN1CCOc2c1c(NCC1CC3(CCNCC3)C1)nn1c(-c3cccc(OC(F)(F)F)c3)nnc21 [Example 59] |  |  |  | 250 to 1000 nM |  |  |
| CN1CCOc2c1c(N1CCCC3(CCCN3)CC1)nn1c(-c3cccc(OC(F)(F)F)c3)nnc21 (stereo not shown) [Example 60, 5-(1,8-Diaza-spiro[4.6]undec-8-yl)-6-methyl-3-(3-trifluoromethoxy-phenyl)-7,8-dihydro-6H-9-oxa-1,2,3a,4,6-pentaaza-cyclopenta[a]naphthalene] | 100 to 1000 nM |  | < 100 nM | < 250 nM |  |  |
| CCN1CCC(CNc2nn3c(-c4cccc(OC(F)(F)F)c4)nnc3c3c2N(C)CCO3)CC1 [Example 91, (1-Ethyl-piperidin-4-ylmethyl)-[6-methyl-3-(3-trifluoromethoxy-phenyl)-7,8-dihydro-6H-9-oxa-1,2,3a,4,6-pentaaza-cyclopenta[a]naphthalen-5-yl]-amine] |  |  |  | 250 to 1000 nM |  |  |
| CN1CCC(CNc2nn3c(-c4ccc(F)cc4)nnc3c3c2N(C)CCO3)CC1 [Example 100, [3-(4-Fluoro-phenyl)-6-methyl-7,8-dihydro-6H-9-oxa-1,2,3a,4,6-pentaaza-cyclopenta[a]naphthalen-5-yl]-(1-methyl-piperidin-4-ylmethyl)-amine] | > 1000 nM |  |  | 1000 to 10000 nM | 100 to 1000 nM | 181 nM |

More lines, main results first:

| IC50 (PIM-2) | IC50 (PIM-3) | IC50 (PIM-1; [2]) | Structure (SMILES) | EC50 [1] | IC50 (PIM-1) | IC50 (PIM-1; read-out: PIM1 IC50) |
| --- | --- | --- | --- | --- | --- | --- |
| 100 to 1000 nM | 100 to 1000 nM | < 100 nM | CN1CCOc2c1c(NCCCO)nn1c(-c3cccc(OC(F)(F)F)c3)nnc21 [Example 21, 3-[6-Methyl-3-(3-trifluoromethoxy-phenyl)-7,8-dihydro-6H-9-oxa-1,2,3a,4,6-pentaaza-cyclopenta[a]naphthalen-5-ylamino]-propan-1-ol] |  |  |  |
| < 100 nM | 100 to 1000 nM | < 100 nM | CN1CCOc2c1c(NC1CCOCC1)nn1c(-c3cccc(OC(F)(F)F)c3)nnc21 [Example 23, [6-Methyl-3-(3-trifluoromethoxy-phenyl)-7,8-dihydro-6H-9-oxa-1,2,3a,4,6-pentaaza-cyclopenta[a]naphthalen-5-yl]-(tetrahydro-pyran-4-yl)-amine] |  |  |  |
| 100 to 1000 nM | 100 to 1000 nM |  | CN1CCOc2c1c(NCCc1cccnc1)nn1c(-c3cccc(OC(F)(F)F)c3)nnc21 [Example 26, [6-Methyl-3-(3-trifluoromethoxy-phenyl)-7,8-dihydro-6H-9-oxa-1,2,3a,4,6-pentaaza-cyclopenta[a]naphthalen-5-yl]-(2-pyridin-3-yl-ethyl)-amine] |  |  |  |
| 100 to 1000 nM | < 100 nM | < 100 nM | CN1CCC(CNc2nn3c(-c4cccc(C(F)(F)F)c4)nnc3c3c2N(C)CCO3)CC1 [Example 32, (1-Methyl-piperidin-4-ylmethyl)-[6-methyl-3-(3-trifluoromethyl-phenyl)-7,8-dihydro-6H-9-oxa-1,2,3a,4,6-pentaaza-cyclopenta[a]naphthalen-5-yl]-amine] |  |  |  |
|  | 100 to 1000 nM | < 100 nM | CN1CCOc2c(NC3CC4(CCNCC4)C3)nn3c(-c4cccc(OC(F)(F)F)c4)nnc3c21 [Example 65, (7-Aza-spiro[3.5]non-2-yl)-[9-methyl-3-(3-trifluoromethoxy-phenyl)-8,9-dihydro-7H-6-oxa-1,2,3a,4,9-pentaaza-cyclopenta[a]naphthalen-5-yl]-amine] | 1000 to 10000 nM |  |  |
| 100 to 1000 nM |  | < 100 nM | CN1CCOc2c1c(N1CC3(CCCNC3)C1)nn1c(-c3cccc(OC(F)(F)F)c3)nnc21 [Example 69, 5-(2,6-Diaza-spiro[3.5]non-2-yl)-6-methyl-3-(3-trifluoromethoxy-phenyl)-7,8-dihydro-6H-9-oxa-1,2,3a,4,6-pentaaza-cyclopenta[a]naphthalene] | < 250 nM |  |  |
| > 1000 nM | 100 to 1000 nM |  | CN1CCC(CNc2nn3c(-c4cccc(OC(F)(F)F)c4)nnc3c3c2OCC(C)(C)N3C)CC1 [Example 72, (1-Methyl-piperidin-4-ylmethyl)-[8,8,9-trimethyl-3-(3-trifluoromethoxy-phenyl)-8,9-dihydro-7H-6-oxa-1,2,3a,4,9-pentaaza-cyclopenta[a]naphthalen-5-yl]-amine] |  | 100 to 1000 nM |  |
| 100 to 1000 nM | 100 to 1000 nM | < 100 nM | CC(C)NCC1CCN(c2nn3c(-c4cccc(OC(F)(F)F)c4)nnc3c3c2N(C)CCO3)CC1 [Example 85, Isopropyl-{1-[6-methyl-3-(3-trifluoromethoxy-phenyl)-7,8-dihydro-6H-9-oxa-1,2,3a,4,6-pentaaza-cyclopenta[a]naphthalen-5-yl]-piperidin-4-ylmethyl}-amine] |  |  |  |
| 100 to 1000 nM | < 100 nM | < 100 nM | CN1CCOc2c1c(N(C)C1CCOCC1)nn1c(-c3cccc(OC(F)(F)F)c3)nnc21 [Example 97, Methyl-[6-methyl-3-(3-trifluoromethoxy-phenyl)-7,8-dihydro-6H-9-oxa-1,2,3a,4,6-pentaaza-cyclopenta[a]naphthalen-5-yl]-(tetrahydro-pyran-4-yl)-amine] |  |  |  |
| 100 to 1000 nM | 100 to 1000 nM | < 100 nM | CN(CCN1CCOCC1)c1nn2c(-c3cccc(OC(F)(F)F)c3)nnc2c2c1N(C)CCO2 [Example 98, Methyl-[6-methyl-3-(3-trifluoromethoxy-phenyl)-7,8-dihydro-6H-9-oxa-1,2,3a,4,6-pentaaza-cyclopenta[a]naphthalen-5-yl]-(2-morpholin-4-yl-ethyl)-amine] |  |  |  |
